Data published in patent publication US9630964B2, “Fluoro-9-methyl-β-carbolines” (priority 2013, dated 2017).
In brackets after ≈: the same amount, converted by molar mass.

Tests used:
[1] = tested on: human neuroblastoma cells (SH-SY5Y); test: Differentiation of human neuroblastoma cells (SH-SY5Y), morphological examination; format: cell-based
Description: The SH-SY5Y cell line was obtained from the German collection of microorganisms and cell cultures—DSMZ, Braunschweig. The cells were cultivated in MEM (Minimum essential medium, Life Technologies) with 10% FCS (fetal calf serum, Biochrom AG) and penicillin/streptomycin (Biochrom AG). For morphological examinations the cells were seeded in a density of 1.5×10^4 cells/cm^2 in 24-well plates (Falcon, cell culture treated) with 1 mL medium. A stock solution of 10 mmol/L of the compound according to the invention 6-fluoro-9-methyl-β-carboline was prepared in 50% ethanol and sterile filtered. Five hours after seeding of the cells the compound according to the invention 6-fluoro-9-methyl-β-carboline was added in the corresponding amount to the medium achieving the desired final concentration. The medium was changed once a week. The cells were regularly microscopically examined. Microscopic images were taken at BZ Keyence 10 with a 10×lens and 4×digital zoom. An automatic contrast enhancement was made with the program BZ Analyzer.

physchem = conditions: water
Description: Furthermore, the solubility of both compounds in water was determined by preparing concentration series of both compounds in water at room temperature. The concentration at which the compound was barely soluble was determined by external calibration. The corresponding concentration was quantified by HPLC.

[2] = tested on: outer hair cells (OHC) in the inner ear; test: Immunohistochemical experiments: dying of outer hair cells after acoustic trauma; format: in vivo; conditions: guinea pig, intratympanic, total 0.2 mg per ear, day 14
Description: To induce an acoustic trauma, guinea pigs were anesthetized with 60 mg/kg ketamine and 8 mg/kg xylazine. Then Bepanten ointment (Bayer) was administered to the eyes and the animal was put in a soundproof chamber. A calibrated speaker was placed directly above the head of the animal, wherein it was set to emit a half octave band, centered around 8 kHz, with a volume of 110 dB for duration of 30 minutes.
The thermosensitive, liquid mixture was administered under view by a Hamilton syringe directly in front of the round window membrane of the middle ear (10 μL). The first dose 6-fluoro-9-methyl-β-carboline (e.g. 0.07 mg) was administered one hour after the acoustic trauma in a concentration of 0.007 mg/μL and the second dose 6-fluoro-9-methyl-β-carboline (0.035 mg in a volume of 5 μL) on day 3. Here, only one ear per animal was treated, while the second ear served as intra-individual control. The control here is particularly abbreviated to “contr.”. In comparative experiments it was found, that administration of just an active agent vehicle (hydrogel) has no effect in comparison to a fully untreated ear. For each active agent (including the controls) four guinea pigs were examined.
On day 14 after the acoustic trauma the region of the ear was dissected so that it contained the cochlea. […] In this way the sound induced damage can be localized and quantified. […]

hearing threshold = test: Acoustically evoked potentials: hearing threshold after acoustic trauma; format: in vivo; conditions: guinea pig, total 0.35 mg per ear
Description: To trigger an acoustic trauma, guinea pigs were anesthetized with 60 mg/kg ketamine and 8 mg/kg xylazine. Then Bepanten ointment (Bayer) was administered to the eyes and the animal was put in a soundproof chamber. A calibrated speaker was placed directly above the head of the animal, wherein it was set to emit a half octave band, centered around 8 kHz, with a volume of 110 dB for duration of 30 minutes.
As measure for evaluation of the hearing threshold of the guinea pig acoustically evoked potentials were measured. Therefore, the electrophysiological activity of the nerve cells in the brain stem that forward impulses from the inner ear was derived after sonication of the ear with 8, 11.3, 16, 22.6 and 32 kHz. The sonification was carried out ascendingly from 0 dB to 90 dB in single steps of 5 dB.
The measurement was carried out 3 days before the acoustic trauma (D-3), 30 minutes after the acoustic trauma (D0) as well as 14 days after the acoustic trauma (D14).
Per animal one ear was not treated and used as intra-individual control (hierin partly abbreviated to “contr.”) and the second ear was treated with 6-fluoro-9-methyl-β-carboline. Therefore, one hour after the acoustic trauma a dose of 0.12 mg 6-fluoro-9-methyl-β-carboline (in a hydrogel as vehicle) was administered intratympanically. 3 days after the acoustic trauma a further intratympanic administration of 0.06 mg 6-fluoro-9-methyl-β-carboline was carried out. The measurements were conducted on four guinea pigs (n=4).
Afterwards, the remaining shift of hearing threshold (also named as permanent shift of hearing threshold) was determined from the measured values before the acoustic trauma (D-3) and after 14 days (D14). From the measured values directly after the acoustic trauma (D0) and after 14 days (D14) the recovery from the trauma (D0-D14) was also determined.
Analogous to the above performed experiments with 6-fluoro-9-methyl-β-carboline, also corresponding experiments with 9-methyl-β-carboline were performed. The experimental procedure was nearly identical, wherein of course 9-methyl-β-carboline instead of 6-fluoro-9-methyl-β-carboline was used. The total dose of 9-methyl-β-carboline was here 0.2 mg and 0.35 mg per ear, respectively.

[3] = guinea pig, in vivo
Description: For better evaluation of half times of 9-methyl-β-carboline (9MβC), 6-fluoro-9-methyl-β-carboline (6F9MβC) and 7-fluoro-9-methyl-β-carboline (7F9MβC) in animal organism and more precisely in perilymph (the notified site of action), experiments with guinea pigs were conducted. Therefore, the respective active agent (in total 1.4 mg active agent per ear), packed in 40 μl of a hydrogel (18% Poloxamer 407 and 0.6% alginate), was administered at once in front of the membrane of the round window of narcotized guinea pigs. […] After expiry of the desired time (20 min, 2 h, 8 h or 24 h), each time 5 μL perilymph were removed under anesthesia from the top of the cochlea (apex). Subsequently, the animal was killed. Per each time (20 min, 2 h, 8 h or 24 h) measured values were taken of at least ears and averaged.
The concentration of the corresponding active agent in perilymph samples was determined by high-performance liquid chromatography (HPLC, partly also named as high-pressure liquid chromatography) and measurement of auto fluorescence of the respective active agent. For HPLC the eluent consisted to 45% of 90% acetonitrile and to 55% of ammonium acetate (40 mM, pH<5). The flow rate was 0.4 mL/min and injection volume was 10 μL. Each sample was diluted with 60% methanol, if the signal was too strong. After each run the injection needle was washed with 100% isopropanol. The detection limit was 20 fmol/L.
From the determined active agent concentrations the elimination half times were then calculated.

[4] = tested on: BDNF (brain-derived neurotrophic factor); test: Quantitative RT-PCR, relative gene expression of BDNF in SH-SY5Y cells; format: cell-based, human; conditions: 30 μM each
Description: (§1) SH-SY5Y cell lines, which were provided by the institute of human genetics of university hospital Eppendorf and which they in turn received from Braunschweig resource center, were used again for the RT-PCR experiments (reverse transcriptase polymerase chain reaction) carried out for this purpose.
(§2) The cells were incubated in MEM (Minimum essential medium, Life Technologies) with 10% FCS (fetal calf serum, Biochrom AG) and penicillin/streptomycin (Biochrom AG). The cells were seeded with a density of 1×10^5 cells/cm^2 in 25 cm^2 cell culture bottles (Falcon, cell culture treated) with 5 mL medium. Stock solutions of 10 mmol/L of compounds 9-methyl-β-carboline (AC-002 or 9MβC) and 6-fluoro-9-methyl-β-carboline (AC-102 or 6F9MβC), respectively were prepared in distillated water and sterile filtered. One day after the cell seeding the compounds were added in corresponding amounts (5-55 μL) to reach final concentration in the medium of 10 μM, 20 μM and 30 μM for 6F9MβC and 30 μM, 50 μM and 70 μM for 9MβC. The references received only the corresponding amount of solvent (distilled water). The medium was changed once a week.
(§3) The cells were regularly microscopically examined and harvest after 2, 7 and 14 days of incubation time, washed with PBS and immediately frozen at −80° C.
The RNA-isolation was done with the HighPure RNA Isolation kit of the company Roche. […] The concentration of RNA was measured with nanoDrop spectrometer and the RNA integrity was determined with the aid of the Bioanalyzer 2100 (Agilent). […]
After the reaction, this run was diluted 1:4 and thereof 2 μL per each quantitative RT-PCR were used. This was performed in a LightCycler 480 under standard conditions in the SybrGreen format with annealing temperatures determined for each primer individually. […]
The specificity was verified by melting curve analysis and subsequent gel electrophoresis. For each PCR the PCR efficiency and the Cq value was determined by the program LinRegPCR and these were used in further calculations. […] Every measured value from FIGS. 5A-5I represents a mean value of 3 independent biologic samples. […]

[5] = tested on: DRD2S (short variant of dopamine receptor subtype 2); test: Quantitative RT-PCR, relative gene expression of DRD2S in SH-SY5Y cells; format: cell-based, human; conditions: 30 μM each
Description: as §1, §2, §3
(§4) The RNA-isolation was done with the HighPure RNA Isolation kit of the company Roche. This isolation includes a DNaseI digestion. The concentration of RNA was measured with nanoDrop spectrometer and the RNA integrity was determined with the aid of the Bioanalyzer 2100 (Agilent). By using random hexamer primers, protector RNA inhibitor (Roche) and transcriptor reverse transcriptase (fermentas), 300 ng RNA were transcribed into cDNA per each sample.
(§5) After the reaction, this run was diluted 1:4 and thereof 2 μL per each quantitative RT-PCR were used. This was performed in a LightCycler 480 under standard conditions in the SybrGreen format with annealing temperatures determined for each primer individually. If possible, exon spanning primers were used.
(§6) The specificity was verified by melting curve analysis and subsequent gel electrophoresis. For each PCR the PCR efficiency and the Cq value was determined by the program LinRegPCR and these were used in further calculations. B2M (β2-microglobulin) was identified from multiple reference genes to be suitable for examination conditions. All results are results relative to the corresponding reference conditions, at which only solvent was administered for the specified period of time (i.e. 2 days, 7 days or 14 days). In FIGS. 5A to 5I are also relative gene expressions (relative to reference conditions) presented. Here, the 2-day exposition is presented in light grey, the 7-day exposition in dark grey and the 14-day exposition in black. Every measured value from FIGS. 5A-5I represents a mean value of 3 independent biologic samples.
(§7) Analogous to example 4 RT-PCR experiments with the inventive active agent 7-fluoro-9-methyl-β-carboline (7F9MβC) were also performed for some important cellular factors. The experimental procedure was here identical to the experiments with 6-fluoro-9-methyl-β-carboline and 9-methyl-β-carboline. Here the same (like for 6F9MβC) final concentrations of 30 μM, 50 μM and 70 μM 7F9MβC for the culture medium were employed. The examined factors were BDNF (brain-derived neurotrophic factor), Lif (Leukemia inhibitory factor), DRD2S (short variant of dopamine receptor subtype 2) as well as DKK1 (Dickkopf-related protein 1). The same primers, that were already listed for the respective target genes in example 4 (Tab. 1) were used. As already noted, especially BDNF and Lif belongs to the most important factors for cellurar repair processes after traumas in the inner ear.

[6] = tested on: Lif (Leukemia inhibitory factor); test: Quantitative RT-PCR, relative gene expression of Lif in SH-SY5Y cells; format: cell-based, human; conditions: 30 μM each
Description: as §1, §2, §3, §4, §5, §6, §7

[7] = tested on: DKK1 (Dickkopf-related protein 1); test: Quantitative RT-PCR, relative gene expression of DKK1 in SH-SY5Y cells; format: cell-based, human; conditions: 30 μM each
Description: as §1, §2, §3, §4, §5, §6
as §7, with “The same primers, that were already listed for the respective target genes in example 4 (Tab. 1) were used. As already noted, especially BDNF and Lif belongs to the most important factors for cellurar repair processes after traumas in the inner ear.” left out

SMILES | neurite growth as indication of differentiation ([1]; 50 μM, compared to 30 μM 6-fluoro-9-methyl-β-carboline) | concentration at which a comparable differentiation of the tested cells is observed ([1]; SH-SY5Y, 15 days incubation) | solubility (physchem) | acoustic trauma-induced dying of outer hair cells [2] | improvement of the recovery of hearing threshold (D1-D14) vs untreated control (hearing threshold) | elimination half time [3] | BDNF expression relative to expression induced by 9MβC ([4]; 2-day exposition) | BDNF expression relative to expression induced by 9MβC ([4]; longer expositions (7 and 14 days)) | DRD2S expression relative to expression induced by 9MβC ([5]; 2-day exposition) | DRD2S expression relative to expression induced by 9MβC ([5]; 7-day exposition) | DRD2S expression relative to expression induced by 9MβC ([5]; 14-day exposition) | Lif expression relative to expression induced by 9MβC ([6]; 2-day exposition) | Lif expression relative to expression induced by 9MβC ([6]; 7-day exposition) | Lif expression relative to expression induced by 9MβC ([6]; 14-day exposition) | DKK1 expression relative to expression induced by 9MβC ([7]; 2-day exposition) | DKK1 expression relative to expression induced by 9MβC ([7]; 7-day exposition) | DKK1 expression relative to expression induced by 9MβC ([7]; 14-day exposition)
Cn1c2ccccc2c2ccncc21 [9MβC, 9-methyl-β-carboline] | too low neurite growth | approximately 70 μM | 168 µg/mL (≈ 924 µM) | could counteract the dying of outer hair cells | about 10 dB | approximately 3.4 h | – | – | – | – | – | – | – | – | – | – | –
Cn1c2cnccc2c2ccc(F)cc21 [7F9MβC, 7-fluoro-9-methyl-β-carboline] | – | – | – | – | – | approximately 5.0 h | approximately three times higher | comparable | twice as high | comparable | slightly weaker | approximately three times higher | weaker | comparable | 1.4 times | comparable | 2.2 times
